pIC50: −log10 of the molar value. Read-outs that look alike come from different tables or passages of the source.
How the values were obtained:
Assay type in all cases: biochemical
PDE1B = biological target: T1, PDE1B (Homo sapiens, UniProt Q01064); assay: Phosphodiesterase enzyme screening assay, PDE1B
T1 construct: purchased Reaction Biology Corporation, Malvern, Pa
Procedure, shortened: (§1)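 Recombinant enzymes were run in 100 mM HEPES pH 7.5, 5 mM MgCl2, 1 mM DTT, 0.003% Brij with 4.0 μM cGMP substrate, started with cGMP or cAMP, 1 h at RT, and stopped with EDTA. Fluorescent substrate and product were separated by microfluidic mobility shift.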

PDE1A = biological target: T2, PDE1A (Homo sapiens, UniProt P54750); assay: Phosphodiesterase enzyme screening assay, PDE1A
T2 construct: purchased Reaction Biology Corporation, Malvern, Pa
Procedure, shortened: as §1

PDE9A2 = biological target: T3, PDE9A2 (Homo sapiens, UniProt O76083); assay: Phosphodiesterase enzyme screening assay, PDE9A2
T3 construct: purchased Reaction Biology Corporation, Malvern, Pa
Procedure, shortened: as §1

[1] = Table 1, ratio of IC50 values, value greater than 1 indicates greater selectivity for PDE9A2
[2] = Table 1, 10 concentrations, 4.0 μM cGMP substrate, 1 hour at R.T., read-out: Band (PDE9A2 IC50)
[3] = ratio of IC50 values, value greater than 1 indicates greater selectivity for PDE9A2

T3 sequence (O76083 1-533 isoform O76083-2): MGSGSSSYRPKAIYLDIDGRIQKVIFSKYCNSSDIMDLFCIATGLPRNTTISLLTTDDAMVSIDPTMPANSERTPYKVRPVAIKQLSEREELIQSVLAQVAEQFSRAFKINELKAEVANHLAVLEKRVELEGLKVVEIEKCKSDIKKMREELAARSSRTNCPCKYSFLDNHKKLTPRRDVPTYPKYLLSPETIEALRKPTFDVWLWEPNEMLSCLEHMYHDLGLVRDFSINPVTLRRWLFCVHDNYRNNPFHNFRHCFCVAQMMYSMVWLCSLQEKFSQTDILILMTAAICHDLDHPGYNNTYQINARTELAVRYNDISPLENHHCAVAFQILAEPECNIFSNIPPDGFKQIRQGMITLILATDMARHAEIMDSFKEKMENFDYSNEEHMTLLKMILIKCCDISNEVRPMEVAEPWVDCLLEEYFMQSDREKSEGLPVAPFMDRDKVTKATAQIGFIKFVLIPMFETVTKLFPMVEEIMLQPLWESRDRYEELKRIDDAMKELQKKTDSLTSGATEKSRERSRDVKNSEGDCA
T2 sequence (P54750 whole entry): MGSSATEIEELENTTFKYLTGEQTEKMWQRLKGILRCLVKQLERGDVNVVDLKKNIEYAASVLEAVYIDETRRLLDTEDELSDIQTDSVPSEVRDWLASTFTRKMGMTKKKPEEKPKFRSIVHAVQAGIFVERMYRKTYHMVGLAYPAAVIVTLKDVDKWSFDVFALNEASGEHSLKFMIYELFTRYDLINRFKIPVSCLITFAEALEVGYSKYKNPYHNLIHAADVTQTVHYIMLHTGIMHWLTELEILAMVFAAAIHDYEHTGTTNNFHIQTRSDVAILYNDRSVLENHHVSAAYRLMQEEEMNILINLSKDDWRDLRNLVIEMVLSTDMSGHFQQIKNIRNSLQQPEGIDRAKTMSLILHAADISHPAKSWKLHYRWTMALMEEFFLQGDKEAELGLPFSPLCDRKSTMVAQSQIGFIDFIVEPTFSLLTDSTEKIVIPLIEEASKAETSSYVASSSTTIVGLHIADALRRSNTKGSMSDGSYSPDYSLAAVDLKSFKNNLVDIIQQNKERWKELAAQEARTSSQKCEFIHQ
T1 sequence (Q01064 whole entry): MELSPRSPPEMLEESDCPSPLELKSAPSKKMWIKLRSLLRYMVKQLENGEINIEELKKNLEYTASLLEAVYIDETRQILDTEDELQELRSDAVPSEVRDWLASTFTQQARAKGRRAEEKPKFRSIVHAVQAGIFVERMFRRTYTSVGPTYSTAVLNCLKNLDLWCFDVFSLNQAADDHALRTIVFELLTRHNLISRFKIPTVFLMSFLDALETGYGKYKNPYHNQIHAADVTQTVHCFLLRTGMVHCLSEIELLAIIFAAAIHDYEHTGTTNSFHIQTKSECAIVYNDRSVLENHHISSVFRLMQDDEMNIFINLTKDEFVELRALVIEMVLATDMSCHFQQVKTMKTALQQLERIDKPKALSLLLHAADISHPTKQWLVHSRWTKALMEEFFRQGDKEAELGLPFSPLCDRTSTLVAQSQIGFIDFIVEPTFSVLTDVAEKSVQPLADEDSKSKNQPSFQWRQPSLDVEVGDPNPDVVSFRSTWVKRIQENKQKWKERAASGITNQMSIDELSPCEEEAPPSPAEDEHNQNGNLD

| PDE1B selectivity (versus PDE9A2) (PDE1B; [1]) | PDE1A selectivity (versus PDE9A2) (PDE1A; [1]) | pIC50 (PDE9A2; [2]) | Structure (SMILES) | further results |
| --- | --- | --- | --- | --- |
| 7 | 9 | > 6.00 | CC1CN(C(=O)c2ccccc2F)CC1c1nn2c(C3CCOCC3)ncc2c(=O)[nH]1 (single isomer, unassigned; (-)) [(−)-2-((3,4-trans)-1-(2-fluorobenzoyl)-4-methylpyrrolidin-3-yl)-7-(tetrahydro-2H-pyran-4-yl)imidazo[5,1-f][1,2,4]triazin-4(3H)-one] |  |
| 26 | 26 | > 6.00 | CC1CN(C(=O)c2cccc(F)c2)CC1c1nn2c(C3CCOCC3)ncc2c(=O)[nH]1 (single isomer, unassigned; (-)) [(−)-2-((3,4-trans)-1-(3-fluorobenzoyl)-4-methylpyrrolidin-3-yl)-7-(tetrahydro-2H-pyran-4-yl)imidazo[5,1-f][1,2,4]triazin-4(3H)-one] |  |
|  |  |  | Cc1ccc(F)cc1-c1ncc2c(=O)[nH]c(C3CN(Cc4ccc(Cl)cc4)CC3C)nn12 (single isomer, unassigned; (-)) [(−)-2-((3,4-trans)-1-(4-chlorobenzyl)-4-methylpyrrolidin-3-yl)-7-(5-fluoro-2-methylphenyl)imidazo[5,1-f][1,2,4]triazin-4(3H)-one] | PDE1B selectivity (versus PDE9A2) (PDE1B; ratio of IC50 values PDE1B vs PDE9A2, value greater than 1 indicates greater selectivity for PDE9A2): 1735; PDE1A selectivity (versus PDE9A2) (PDE1A; ratio of IC50 values PDE1A vs PDE9A2, value greater than 1 indicates greater selectivity for PDE9A2): 3375; pIC50 (PDE9A2; IC50 band, 4.0 μM cGMP substrate, 1 hour at R.T.): > 6.00 |
| 540 | 433 | > 6.00 | CC1CN(Cc2nc3ccccc3[nH]2)CC1c1nn2c(C3CCOCC3)ncc2c(=O)[nH]1 (single isomer, unassigned; (-)) [(−)-2-((3,4-trans)-1-((1H-benzo[d]imidazol-2-yl)methyl)-4-methylpyrrolidin-3-yl)-7-(tetrahydro-2H-pyran-4-yl)imidazo[5,1-f][1,2,4]triazin-4(3H)-one] |  |
|  |  |  | CC1CN(Cc2ccc(-c3ccccc3)cc2)CC1c1nn2c(C3CCOCC3)ncc2c(=O)[nH]1 (single isomer, unassigned; (-)) [(−)-2-((3,4-trans)-1-([1,1′-biphenyl]-4-ylmethyl)-4-methylpyrrolidin-3-yl)-7-(tetrahydro-2H-pyran-4-yl)imidazo[5,1-f][1,2,4]triazin-4(3H)-one] | PDE1B selectivity (versus PDE9A2) (PDE1B; [3]): 2060; PDE1A selectivity (versus PDE9A2) (PDE1A; [3]): 2875; pIC50 (PDE9A2; read-out: Band (PDE9A2 IC50)): > 6.00 |
| 591 | 188 | > 6.00 | CC1CN(Cc2cn3cccnc3n2)CC1c1nn2c(C3CCOCC3)ncc2c(=O)[nH]1 (single isomer, unassigned; (-)) [(−)-2-((3,4-trans)-1-(imidazo[1,2-a]pyrimidin-2-ylmethyl)-4-methylpyrrolidin-3-yl)-7-(tetrahydro-2H-pyran-4-yl)imidazo[5,1-f][1,2,4]triazin-4(3H)-one] |  |
| 12 | 8 | > 6.00 | CC1CN(Cc2cn3ncccc3n2)CC1c1nn2c(C3CCOCC3)ncc2c(=O)[nH]1 (single isomer, unassigned; (-)) [(−)-2-((3,4-trans)-1-(imidazo[1,2-b]pyridazin-2-ylmethyl)-4-methylpyrrolidin-3-yl)-7-(tetrahydro-2H-pyran-4-yl)imidazo[5,1-f][1,2,4]triazin-4(3H)-one] |  |
| 550 | 465 | > 6.00 | CC1CN(Cc2ccccc2)CC1c1nn2c(C3CCOCC3)ncc2c(=O)[nH]1 (single isomer, unassigned; (-)) [(−)-2-((3,4-trans)-1-benzyl-4-methylpyrrolidin-3-yl)-7-(tetr] [(−)-2-((3,4-trans)-1-benzyl-4-methylpyrrolidin-3-yl)-7-(tetrahydro-2H-pyran-4-yl)imidazo[1,5-f][1,2,4]triazin-4(3H)-one] |  |
|  |  |  | CC1CN(Cc2ccc(-c3ccncc3)cc2)CC1c1nn2c(C3CCOCC3)ncc2c(=O)[nH]1 (single isomer, unassigned; (-)) [(−)-2-((3,4-trans)-4-methyl-1-(4-(pyridin-4-yl)benzyl)pyrrolidin-3-yl)-7-(tetrahydro-2H-pyran-4-yl)imidazo[5,1-f][1,2,4]triazin-4(3H)-one] | PDE1B selectivity (versus PDE9A2) (PDE1B; ratio of IC50 values, PDE1B versus PDE9A2, value greater than 1 = greater selectivity for PDE9A2): 1560; PDE1A selectivity (versus PDE9A2) (PDE1A; ratio of IC50 values, PDE1A versus PDE9A2, value greater than 1 = greater selectivity for PDE9A2): 679; pIC50 (PDE9A2; Table 3, 4.0 μM cGMP substrate, 1 hour at R.T., read-out: Band (PDE9A2 IC50)): > 6.00 |
| 2000 | 1213 | > 6.00 | CC1CN(Cc2ncc3ccccc3n2)CC1c1nn2c(C3CCOCC3)ncc2c(=O)[nH]1 (single isomer, unassigned; (-)) [(−)-2-((3,4-trans)-4-methyl-1-(quinazolin-2-ylmethyl)pyrroli] [(−)-2-((3,4-trans)-4-methyl-1-(quinazolin-2-ylmethyl)pyrrolidin-3-yl)-7-(tetrahydro-2H-pyran-4-yl)imidazo[5,1-f][1,2,4]triazin-4(3H)-one] |  |
| 50 | 32 | > 6.00 | CC1CN(C(=O)c2ncc3ccccc3n2)CC1c1nn2c(C3CCOCC3)ncc2c(=O)[nH]1 (single isomer, unassigned; (-)) [(−)-2-((3,4-trans)-4-methyl-1-(quinazoline-2-carbonyl)pyrrolidin-3-yl)-7-(tetrahydro-2H-pyran-4-yl)imidazo[5,1-f][1,2,4]triazin-4(3H)-one] |  |
| 48 | 56 | > 6.00 | CC1CN(Cc2ccc3ccccc3n2)CC1c1nn2c(C3CCOCC3)ncc2c(=O)[nH]1 (single isomer, unassigned; (-)) [(−)-2-((3,4-trans)-4-methyl-1-(quinolin-2-ylmethyl)pyrrolidi] [(−)-2-((3,4-trans)-4-methyl-1-(quinolin-2-ylmethyl)pyrrolidin-3-yl)-7-(tetrahydro-2H-pyran-4-yl)imidazo[5,1-f][1,2,4]triazin-4(3H)-one] |  |
| 2610 | 334 | > 6.00 | CC1CN(Cc2ccc3cccnc3c2)CC1c1nn2c(C3CCOCC3)ncc2c(=O)[nH]1 (single isomer, unassigned; (-)) [(−)-2-((3,4-trans)-4-methyl-1-(quinolin-7-ylmethyl)pyrrolidin-3-yl)-7-(tetrahydro-2H-pyran-4-yl)imidazo[5,1-f][1,2,4]triazin-4(3H)-one] |  |
| 59 | 25 | > 6.00 | CC1CN(C(=O)c2ccc3ccccc3n2)CC1c1nn2c(C3CCOCC3)ncc2c(=O)[nH]1 (single isomer, unassigned; (-)) [(−)-2-((3,4-trans)-4-methyl-1-(quinoline-2-carbonyl)pyrrolidin-3-yl)-7-(tetrahydro-2H-pyran-4-yl)imidazo[5,1-f][1,2,4]triazin-4(3H)-one] |  |
| 50 | 36 | > 6.00 | CC1CN(C(=O)c2cccnc2)CC1c1nn2c(C3CCOCC3)ncc2c(=O)[nH]1 (single isomer, unassigned; (-)) [(−)-2-((3,4-trans)-4-methyl-1-nicotinoylpyrrolidin-3-yl)-7-(tetrahydro-2H-pyran-4-yl)imidazo[5,1-f][1,2,4]triazin-4(3H)-one] |  |
| 21 | 14 | > 6.00 | CC1CN(C(=O)c2ccc(C#N)cc2)CC1c1nn2c(C3CCOCC3)ncc2c(=O)[nH]1 (single isomer, unassigned; (-)) [(−)-4-((3,4-trans)-3-methyl-4-(4-oxo-7-(tetrahydro-2H-pyran-4-yl)-3,4-dihydroimidazo[5,1-f][1,2,4]triazin-2-yl)pyrrolidine-1-carbonyl)benzonitrile] |  |
|  |  |  | CC1CN(CC2CCN(C(=O)OC(C)(C)C)CC2)CC1c1nn2c(C3CCOCC3)ncc2c(=O)[nH]1 (single isomer, unassigned; (-)) [(−)-tert-butyl (−)-4-(((3,4-trans)-3-methyl-4-(4-oxo-7-(tetrahydro-2H-pyran-4-yl)-3,4-dihydroimidazo[5,1-f][1,2,4]triazin-2-yl)pyrrolidin-1-yl)methyl)piperidine-1-carboxylate] | PDE1B selectivity (versus PDE9A2) (PDE1B; [3]): 262; PDE1A selectivity (versus PDE9A2) (PDE1A; [3]): 129; pIC50 (PDE9A2; read-out: Band (PDE9A2 IC50)): > 6.00 |

| Structure (SMILES) | PDE1B selectivity (versus PDE9A2) (PDE1B; [1]) | PDE1A selectivity (versus PDE9A2) (PDE1A; [1]) | pIC50 (PDE9A2; [2]) | further results |
| --- | --- | --- | --- | --- |
| CC1CN(Cc2ccc(C#N)cc2)CC1c1nn2c(C3CCOCC3)ncc2c(=O)[nH]1 (single isomer, unassigned; (-)) [(−)-4-(((3,4-trans)-3-methyl-4-(4-oxo-7-(tetrahydro-2H-pyran-4-yl)-3,4-dihydroimidazo[5,1-f][1,2,4]triazin-2-yl)pyrrolidin-1-yl)methyl)benzonitrile] | 1445 | 640 | > 6.00 |  |
